Entries after “also recorded” stand apart in the source; their conditions may differ.
Assays:
[1] = test system: Anopheles gambiae mosquitoes; assay: Mosquito mortality observed in SMFA (insecticidal activity); format: in vivo; conditions: 0.1 to 3 μM in blood meal
Experimental: (§1) P. falciparum (NF54) was cultured in the complete RPMI-1640 containing 4% new O+ human red blood cells, 10% human AB+ serum, and 12.5 μg/ml of hypoxanthine in a candle jar at 37° C. Standard membrane feeding assays (SMFA) were used to examine the efficacy of AST. In brief, 10 ml of day-15 cultured P. falciparum containing ˜2% stage V gametocytes in a 15 ml centrifuge tube was centrifuged at 650×g for 5 min at RT. After the supernatant was removed, the cells were re-suspended in 1 ml of pre-warmed human AB− serum (37° C.), to which 1 ml of O+ hematocrit was added. 300 μl of the resulting infected blood were mixed with 2 μl of AST at different concentrations, yielding a final concentration of 0, 0.1, 0.3, 1, or 3 μM, which was fed a hundred 3-5-day-old female mosquitoes for 30 minutes. The unfed mosquitoes were removed, and the engorged mosquitoes were maintained with 10% sugar in the insectary. Seven days post-infection, the midguts were dissected and stained with 0.1% mercury dibromofluorescein salt in PBS for 30 minutes. The number of oocysts was counted under a 10× light microscope.

[2] = test system: human cell lines (HEK293, THP-1, macrophage, HepG2, Caco-2); assay: Stability in culture media and human cell lysates (arsenic speciation by HPLC-ICP-MS); conditions: 100 μM AST, 48 h, five human cell lines
[3] = test system: sexual-stage P. falciparum transmission to Anopheles gambiae; assay: Transmission-blocking standard membrane feeding assay (SMFA), oocysts in An. gambiae midguts; format: in vivo, Plasmodium falciparum
Experimental: as §1, with “300 μl of the resulting infected blood were mixed with 2 μl of AST at different concentrations, yielding a final concentration of 0, 0.1, 0.3, 1, or 3 μM, which was fed a hundred 3-5-day-old female mosquitoes for 30 minutes.” left out

[4] = test system: asexual-stage P. falciparum; assay: Antimalarial activity on the asexual stage of P. falciparum (parasitemia in infected red blood cells); format: cell-based, Plasmodium falciparum
Experimental: 3-5-day cultured P. falciparum-infected red blood cells (iRBCs) were mixed with fresh human RBCs (AB+ type) in complete RPMI 1640 to prepare cultures with 0.5% parasitemia and 2% hematocrit. AST was dissolved in DMSO. […] The plate was incubated in a candle jar at 37° C. Approximately 48 h later, the medium was replaced with fresh medium containing the same concentration of AST. Parasitemia was recorded on day 4 post-incubation.

human GS-II (hGS-II) = molecular target: T1, human GS-II (hGS-II) (Homo sapiens, UniProt P15104); assay: Glutamine synthetase assay (Glutamine/Glutamate-GLO), human GS-II; format: biochemical; conditions: 1 μM AST, 1 μM hGS-II, 30 min
T1 construct: purchased BioVision Inc
T1 sequence (P15104 whole entry): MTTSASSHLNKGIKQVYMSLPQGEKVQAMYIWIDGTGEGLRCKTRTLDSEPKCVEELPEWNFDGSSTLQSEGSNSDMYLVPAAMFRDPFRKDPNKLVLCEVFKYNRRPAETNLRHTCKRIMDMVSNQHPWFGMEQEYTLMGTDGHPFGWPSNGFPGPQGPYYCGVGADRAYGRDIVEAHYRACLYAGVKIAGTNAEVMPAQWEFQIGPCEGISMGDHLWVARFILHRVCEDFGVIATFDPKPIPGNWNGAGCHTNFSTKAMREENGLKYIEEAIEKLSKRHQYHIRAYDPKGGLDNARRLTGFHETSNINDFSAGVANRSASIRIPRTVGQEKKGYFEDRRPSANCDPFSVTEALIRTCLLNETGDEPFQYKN
Experimental: (§2) The activity and inhibition profiles of purified MBP-fused PfGS-I or human GS-II (hGS-II) (BioVision Inc., Milpitas, CA, USA) in the presence or absence of AST were estimated from glutamine production using Glutamine/Glutamate-GLO™ Assay Kit (Promega, Madison, WI). The assay mixture (50 mM imidazole-HCl buffer (pH 7.0), 7.6 mM ATP, 50 mM magnesium chloride, 50 mM ammonium chloride) with or without the indicated concentration of GS enzyme was preincubated in the presence or absence of the indicated concentrations of AST for 15 min at room temperature. The reaction was initiated by addition of L-glutamate at 0.1 mM, final concentration. The reaction mixtures were incubated at 37° C. with shaking at 300 rpm for indicated time. The reactions were terminated by chilling the reaction mixture in ice water and filtered with 30 kDa Amicon Ultra centrifugal filters at 4° C. Glutamate concentrations in the filtered samples were determined using Glutamine/Glutamate-GLO™ Assay as instructed in the kit's manual, from which glutamine concentrations were estimated by subtracting the glutamate concentrations from the initial concentrations (0.1 mM). The half maximal effective concentration (EC50) of AST for PfGS-I was calculated using Sigma Plot (Systat Software, Inc., Sun Jose, CA).

[5] = test system: macrophage-like cells differentiated from THP-1
[6] = test system: human cell lines (HEK293, THP-1, macrophage, HepG2, Caco-2)
[7] = test system: human cell lines (HEK293, THP-1, macrophage, HepG2, Caco-2); assay: MTT cytotoxicity assay, five human cell lines overall
[8] = molecular target: T2, PfGS-I (P. falciparum glutamine synthetase, MBP-fused) (Plasmodium falciparum, UniProt W7JM41); assay: Glutamine synthetase assay (Glutamine/Glutamate-GLO), PfGS-I; format: biochemical
T2 sequence (W7JM41 1-544): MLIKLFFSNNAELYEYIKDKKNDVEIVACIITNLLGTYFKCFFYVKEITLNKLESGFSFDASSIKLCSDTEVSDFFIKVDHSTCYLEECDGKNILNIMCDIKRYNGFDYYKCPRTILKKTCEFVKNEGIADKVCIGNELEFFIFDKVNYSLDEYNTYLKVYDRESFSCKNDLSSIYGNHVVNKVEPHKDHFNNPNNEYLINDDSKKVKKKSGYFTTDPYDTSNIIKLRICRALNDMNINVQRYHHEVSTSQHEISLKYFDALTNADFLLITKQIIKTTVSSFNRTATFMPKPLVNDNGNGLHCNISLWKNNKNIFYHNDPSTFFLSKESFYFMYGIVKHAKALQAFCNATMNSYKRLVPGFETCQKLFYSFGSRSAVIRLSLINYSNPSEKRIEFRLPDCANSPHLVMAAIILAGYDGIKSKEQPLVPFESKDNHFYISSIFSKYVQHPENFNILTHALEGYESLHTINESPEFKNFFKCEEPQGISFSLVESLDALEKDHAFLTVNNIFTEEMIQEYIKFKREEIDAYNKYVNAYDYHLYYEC
Experimental: as §2

C[As](=O)(O)CC[C@H](N)C(=O)O [AST, 2-amino-4-(hydroxymethylarsinoyl)butanoate]
CC50 (THP-1 cells): > 250 µM | CC50 (HepG2 cells): > 250 µM | dead mosquitoes (insecticidal activity) [1]: no dead mosquitoes were observed | arsenic species in culture media and cell lysates (stability) [2]: almost exclusively AST | inhibition of P. falciparum transmission to An. gambiae compared to PT and MSO ([3]; 3 μM, SMFA, oocysts day 7): significantly inhibits | inhibition of malaria transmission ([3]; 3 μM, SMFA, oocysts day 7): completely inhibited | inhibition of transmission to mosquitoes ([3]; AST at 100 μM): completely inhibits | EC50 ([3]; SMFA, An. gambiae, oocysts day 7 post-infection, read-out: EC50 in blocking transmission of sexual-stage P. falciparum to mosquitos (50% of oocysts per mosquito vs control)): 0.34 µM | inhibition of P. falciparum proliferation in blood ([4]; AST at 100 μM): completely inhibits | EC50 ([4]; infected human blood, 0.5% parasitemia, 2% hematocrit, day 4, read-out: EC50 in inhibiting asexual-stage P. falciparum (50% of parasitemia rate vs AST-free control)): 13.9 µM | CC50 (HEK293 cells): > 250 µM | effect on hGS-II activity (human GS-II (hGS-II)): did not significantly reduce; also recorded: little effect | CC50 [5]: > 250 µM | permeability (total arsenic levels in cells) [6]: permeable to cytomembrane | permeability to HepG2 cells [6]: moderately permeable | effect on viability of the tested human cell lines ([7]; AST at 100 μM, most of the tested cell lines): little effect | times less cytotoxic than As(III) ([7]; ratio of LC50 values, human cell lines): > 10 times | CC50 (Caco-2 cells): 150 to 200 µM | EC50 ([8]; 0.5 μM PfGS-I, 2 hours, read-out: EC50 for PfGS-I inhibition): 0.4 µM | reduction of PfGS-I activity ([8]; 1 μM AST): more than 60% | activity of PfGS-I compared with the control without AST treatment ([8]; 1 μM AST, 1 μM PfGS-I, 30 min): less than 40% | inhibition of PfGS-I activity ([8]; AST at 100 μM): completely inhibits

— patent publication US11877996B1 (priority 2023, dated 2024)
